Results: patent US20250243160A1, “INDOLE DERIVATIVES FOR TARGETING AUTOPHAGY” (Automera PTE. LTD, priority 2024, published 2025)

Tests used:
Recombinant p62 protein = Recombinant p62 protein (Homo sapiens, UniProt Q13501); assay: Surface plasmon resonance (SPR) compound binding to p62; details: 15° C
Description: Recombinant p62 protein was buffer exchanged into Biacore SPR running buffer (Cytiva 100671) using the Slide-A-Lyzer Mini Dialysis system 7K MWCO (Thermo Fisher Scientific, Cat no. 69560). The final protein concentration was determined using the Nanodrop One spectrophotometer (Thermo Fisher Scientific, cat no. ND-ONE-W), with calibration for the dialysis buffer.
The prepared protein was diluted in sodium acetate buffer (NaAc, pH 5.5, Cytiva) to concentrations ranging from approximately 0.25-40 μg/mL. Post-immobilization, the protein required approximately 16 hours of equilibration in running buffer supplemented with 1% DMSO at 15° C. to ensure adequate surface equilibration and protein reorganization.
All SPR experiments were conducted at a constant temperature of 15° C. The SPR chip surface was activated using EDC/NHS for a contact time of 6-10 min at a flow rate of 10 μL/min. This was followed by protein immobilization for 2100 seconds and ethanolamine capping for 420 seconds, both at the same flow rate. Immediately after immobilization, the NH2-REEE peptide was analyzed in Single Cycle Kinetics mode (SCK) to verify surface activity, ensuring it binds the sample with the published affinity (˜20 μM by SPR).
For general compound binding studies, experiments were performed at 15° C. using a running buffer composed of 10 mM HEPES, 150 mM NaCl, 1 mM DTT, 0.05% Tween 20, and 1% DMSO at pH 7.4. The test compound was initially prepared at a 20 mM concentration in DMSO and subsequently titrated in 2-fold dilutions. For each assay, 2 μL of the compound was mixed with 198 μL of the running buffer, and the mixture was thoroughly pipetted approximately 15 times for homogenization.
A series of blank injections (0 μM concentration) were included for double referencing, with at least 8 or 16 per plate depending on the format. Typical injection parameters were 120 seconds for association and 180 seconds for dissociation at a flow rate of […]. A four-point solvent correction was prepared with DMSO concentrations ranging from 2% to 0.5% in the buffer. Post each compound injection, the system's needles were washed with 50% DMSO.
Analysis of the SPR data was conducted using the Cytiva Evaluation software. The binding levels at the late time-point of each interaction were corrected for reference, then normalized to percentage bound values to account for variations in immobilization levels, protein molecular weight, and compound molecular weight.
Compound binding studies were carried out according to experimental procedures above and SPR % occupancy was determined and summarized in Table 7.

LC3 protein = assay: LC3 lipidation (LC3-II/LC3-I) assay by Western blot in HeLa cells; type: cell-based; design: key: ++: >2-fold change in LC3-II/LC3-I relative to DMSO control; +: <2-fold change in LC3-II/LC3-I relative to DMSO control; −: no change in LC3-II/LC3-I relative to DMSO control; details: 24 hours treatment, relative to vehicle control (DMSO)
Description: (§1) HeLa cells were seeded in 6-well plates (700,000 cells) and allowed to adhere overnight. Media was replaced one hour before administering either vehicle (DMSO) or test compounds. After 24 hours of treatment, the media was discarded, and cells were rinsed once with ice-cold 1×PBS before detached from plates with ice-cold RIPA Lysis and Extraction Buffer (Thermo Fisher Scientific) which was supplemented with protease and phosphatase inhibitors. The resulting cell suspensions were transferred to pre-chilled microcentrifuge tubes, incubated on ice for 20 min with intermittent mixing and then centrifuged at 12,000 rpm for 20 min at 4° C. The supernatants were then aspirated slowly and transferred into new tubes kept on ice. The protein concentration in the samples was determined using BCA kit (Thermo Fisher Scientific) as per manufacturer's instructions.
(§2) For the p62 oligomerization and LC3 lipidation assays, cell lysates were prepared using RIPA buffer supplemented with 2% SDS and benzonase (Sigma). The lysates were then combined with 4× Laemmli protein sample buffer (Bio-Rad), heated at 70° C. for 10 min and subjected to a brief centrifugation of 10-15 seconds.
(§3) For p62 oligomerization and LC3 lipidation assays, lysates containing 30 μg of protein and for BRD4 and FKBP12(F36V) degradation assays, lysates containing 20 μg of protein, were loaded slowly into the wells of 4-20% gradient Tris-glycine gels (Bio-Rad). The gels were run at 100V until completion and transferred onto PVDF membranes. Membranes were blocked using 5% milk in TBS-Tween (0.1%) buffer at room temperature for 1 hour. The membranes were incubated with primary antibody in 5% milk-TBST with shaking, overnight at 4° C. The primary antibodies used were: p62 (Novus Biologicals 2C11, H00008878-MO1), LC3A/B (Cell Signalling Technology D3U4C, 12741S), FKBP12 (Abcam ab24373), BRD4 (Cell Signalling Technology E2A7X, 13440S), GAPDH (Cell Signalling Technology D4C6R, 97166S), and β-Actin (Proteintech 66009-1-Ig). Following primary antibody incubation, membranes were washed thrice with TBST 10 min before and after incubation with secondary-HRP conjugated antibody in 5% milk-TBST for 1 hour at room temperature. The secondary antibodies used were: Anti-Mouse IgG HRP Conjugate (Promega W4021B) and Anti-Rabbit IgG HRP Conjugate (Promega W4011). For the p62 oligomerization assay, the total protein levels were assessed using Ponceau staining (Thermo Fisher Scientific) of PVDF membrane as per recommendation by manufacturer's guidelines.
(§4) Imaging was acquired using SuperSignal™ West Pico PLUS Chemiluminescent Substrate (Thermo Fisher Scientific) with iBright Invitrogen FL100 imaging system. Band signal intensity, reflective of protein concentrations, were quantified using Invitrogen™ iBright™ Analysis and Image J software.
HeLa cells were treated with compounds for 24 hours to evaluate the effect of these compounds on LC3-II/LC3-I levels, a measure of autophagy activation. The changes in levels of LC3-I, LC3-II and […] (loading control) were assessed by Western blotting, as described in experimental procedures. The fold increase of LC3-II/LC3-I levels induced by compound treatment relative to vehicle control (DMSO) was determined and summarized in Table 9. Specifically, FIGS. 3A-C show Western blot images and their corresponding quantification showing the lipidation levels of LC3 protein (LC3-II/LC3-I) by 24 hours compound treatments at listed concentrations, relative to vehicle control (DMSO) in HeLa cells.

p62 oligomers = molecular target: T1, p62 oligomers (Homo sapiens, UniProt Q13501); assay: p62 oligomerization assay by Western blot in HeLa cells; type: cell-based; details: 24 hours treatment, relative to vehicle control (DMSO)
T1 construct: endogenous in cells; host or cells: HeLa
T1 sequence (Q13501 whole entry): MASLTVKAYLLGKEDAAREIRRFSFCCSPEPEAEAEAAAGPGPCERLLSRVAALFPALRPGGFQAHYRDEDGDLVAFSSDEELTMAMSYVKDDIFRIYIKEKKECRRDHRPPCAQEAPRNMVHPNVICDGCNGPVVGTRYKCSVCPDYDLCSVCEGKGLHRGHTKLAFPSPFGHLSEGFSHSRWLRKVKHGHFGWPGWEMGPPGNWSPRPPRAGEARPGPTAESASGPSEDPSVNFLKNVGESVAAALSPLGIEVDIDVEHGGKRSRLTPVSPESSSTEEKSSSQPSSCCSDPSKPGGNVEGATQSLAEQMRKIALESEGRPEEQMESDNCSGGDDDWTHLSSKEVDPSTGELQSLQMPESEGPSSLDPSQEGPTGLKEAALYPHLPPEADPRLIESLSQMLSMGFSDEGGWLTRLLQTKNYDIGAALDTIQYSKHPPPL
Description: as §1, §2, §3, §4
HeLa cells were treated with compounds for 24 hours to evaluate the effect of these compounds on p62 oligomerisation activity. The resulting changes in levels of p62 oligomers were assessed by Western blotting, as described in experimental procedures. The fold change of p62 oligomer levels induced by compound treatment relative to vehicle control (DMSO) was determined and summarized in Table 8. Specifically, FIGS. 2A-C show Western blot images and their corresponding quantification showing the levels of high molecular weight (100-200 kDa) p62 oligomers by 24 hours compound treatments at listed concentrations, relative to vehicle control (DMSO) in HeLa cells. Protein loading consistencies was assessed by Ponceau staining (not shown).

Sequence of Recombinant p62 protein (Q13501 whole entry, species assumed): as the sequence (Q13501 whole entry) above

What does the source list for `Cc1cn(Cc2ccccc2)c2cccc(CNCCO)c12` [Compound 37, 2-(((1-benzyl-3-methyl-1H-indol-4-yl)methyl)amino)ethan-1-ol]?
receptor occupancy at 100 µM (Recombinant p62 protein): 30 to 70%; LC3 lipidation (fold increase of LC3-II/LC3-I levels) (LC3 protein): + (<2-fold change in LC3-II/LC3-I relative to DMSO control); p62 oligomerization (fold change of p62 oligomer levels) (p62 oligomers): ++ (>2-fold change relative to DMSO control)

`OCCNCc1cccc2c1ccn2Cc1ccc(F)cc1` [Compound 10] was tested. Which receptor occupancy at 100 µM (Recombinant p62 protein) did it give?
The receptor occupancy at 100 µM was over 70%.

And the “LC3 lipidation (fold increase of LC3-II/LC3-I levels)” value (LC3 protein)?
Its value is “+ (<2-fold change in LC3-II/LC3-I relative to DMSO control)”.

And the “p62 oligomerization (fold change of p62 oligomer levels)” value (p62 oligomers)?
Its value is “++ (>2-fold change relative to DMSO control)”.

Which results are given for `CC(C)(C)OC(=O)N1Cc2ccc(Cn3ccc4c(CNCCO)cccc43)cc2C1` [Compound 27]?
receptor occupancy at 100 µM (Recombinant p62 protein): > 70%; LC3 lipidation (fold increase of LC3-II/LC3-I levels) (LC3 protein): + (<2-fold change in LC3-II/LC3-I relative to DMSO control); p62 oligomerization (fold change of p62 oligomer levels) (p62 oligomers): ++ (>2-fold change relative to DMSO control)

`OCCNCc1cccc2c1ccn2Cc1c[nH]cn1` [Compound 21, 2-(((1-((1H-imidazol-4-yl)methyl)-1H-indol-4-yl)methyl)amino)ethan-1-ol] was tested. Which receptor occupancy at 100 µM (Recombinant p62 protein) did it give?
Its receptor occupancy at 100 µM is 30 to 70%.

And the “LC3 lipidation (fold increase of LC3-II/LC3-I levels)” value (LC3 protein)?
Its value is “−”.

What about the “p62 oligomerization (fold change of p62 oligomer levels)” value (p62 oligomers) of the same compound?
Its value is “+ (<2-fold change relative to DMSO control)”.

`OCCNCc1ccc(Cl)c2c1ccn2Cc1ccccc1` [Compound 35] was tested. Which receptor occupancy at 100 µM (Recombinant p62 protein) did it give?
Its receptor occupancy at 100 µM is over 70%.

What about the “LC3 lipidation (fold increase of LC3-II/LC3-I levels)” value (LC3 protein) of the same compound?
Its value is “++ (>2-fold change in LC3-II/LC3-I relative to DMSO control)”.

And the “p62 oligomerization (fold change of p62 oligomer levels)” value (p62 oligomers)?
The value was “++ (>2-fold change relative to DMSO control)”.

With `OCCNCc1cccc2c1ccn2Cc1ccc(Cl)cc1` [Compound 11] as the compound, how does the receptor occupancy at 100 µM (Recombinant p62 protein) read?
The receptor occupancy at 100 µM was over 70%.

And the “LC3 lipidation (fold increase of LC3-II/LC3-I levels)” value (LC3 protein)?
The value was “++ (>2-fold change in LC3-II/LC3-I relative to DMSO control)”.

And the “p62 oligomerization (fold change of p62 oligomer levels)” value (p62 oligomers)?
The value was “++ (>2-fold change relative to DMSO control)”.

`OCCNCc1cc(F)cc2c1ccn2Cc1ccccc1` [Compound 31] was tested. Which receptor occupancy at 100 µM (Recombinant p62 protein) did it give?
The receptor occupancy at 100 µM was over 70%.

What about the “LC3 lipidation (fold increase of LC3-II/LC3-I levels)” value (LC3 protein) of the same compound?
Its value is “+ (<2-fold change in LC3-II/LC3-I relative to DMSO control)”.

What about the “p62 oligomerization (fold change of p62 oligomer levels)” value (p62 oligomers) of the same compound?
The value was “++ (>2-fold change relative to DMSO control)”.

With `OCCNCc1cccc2c1ccn2-c1ccccc1` [Compound 9, 2-(((1-phenyl-1H-indol-4-yl)methyl)amino)ethan-1-ol] as the compound, how does the receptor occupancy at 100 µM (Recombinant p62 protein) read?
Its receptor occupancy at 100 µM is over 70%.

What about the “LC3 lipidation (fold increase of LC3-II/LC3-I levels)” value (LC3 protein) of the same compound?
The value was “+ (<2-fold change in LC3-II/LC3-I relative to DMSO control)”.

What about the “p62 oligomerization (fold change of p62 oligomer levels)” value (p62 oligomers) of the same compound?
The value was “++ (>2-fold change relative to DMSO control)”.

How did the receptor occupancy at 100 µM (Recombinant p62 protein) turn out when `CC(C)NCC(O)COc1cccc2c1ccn2Cc1ccccc1` (stereo not drawn) [Compound 6, 1-((1-benzyl-1H-indol-4-yl)oxy)-3-(isopropylamino)propan-2-ol] was run?
Its receptor occupancy at 100 µM is 30 to 70%.

And the “LC3 lipidation (fold increase of LC3-II/LC3-I levels)” value (LC3 protein)?
Its value is “+ (<2-fold change in LC3-II/LC3-I relative to DMSO control)”.

And the “p62 oligomerization (fold change of p62 oligomer levels)” value (p62 oligomers)?
The value was “++ (>2-fold change relative to DMSO control)”.

Which results are given for `Cc1cn(CC2CCOCC2)c2cccc(CNCCO)c12` [Compound 49]?
receptor occupancy at 100 µM (Recombinant p62 protein): 30 to 70%; LC3 lipidation (fold increase of LC3-II/LC3-I levels) (LC3 protein): −; p62 oligomerization (fold change of p62 oligomer levels) (p62 oligomers): + (<2-fold change relative to DMSO control)

Which receptor occupancy at 100 µM (Recombinant p62 protein) does the source give for `OCCNCc1cccc2c1ccn2CCC1CCNCC1` [Compound 26] here?
Its receptor occupancy at 100 µM is 30 to 70%.

What about the “LC3 lipidation (fold increase of LC3-II/LC3-I levels)” value (LC3 protein) of the same compound?
The value was “+ (<2-fold change in LC3-II/LC3-I relative to DMSO control)”.

And the “p62 oligomerization (fold change of p62 oligomer levels)” value (p62 oligomers)?
The value was “++ (>2-fold change relative to DMSO control)”.

Which receptor occupancy at 100 µM (Recombinant p62 protein) does the source give for `Cc1cn(Cc2ccc(F)cc2)c2cccc(CNCCO)c12` [Compound 48] here?
The receptor occupancy at 100 µM was 30 to 70%.

And the “LC3 lipidation (fold increase of LC3-II/LC3-I levels)” value (LC3 protein)?
The value was “++ (>2-fold change in LC3-II/LC3-I relative to DMSO control)”.

What about the “p62 oligomerization (fold change of p62 oligomer levels)” value (p62 oligomers) of the same compound?
The value was “++ (>2-fold change relative to DMSO control)”.

Which receptor occupancy at 100 µM (Recombinant p62 protein) does the source give for `OCCNCc1cccc2c1ccn2Cc1cccc(Cl)c1` [Compound 13] here?
The receptor occupancy at 100 µM was 30 to 70%.

What about the “LC3 lipidation (fold increase of LC3-II/LC3-I levels)” value (LC3 protein) of the same compound?
Its value is “+ (<2-fold change in LC3-II/LC3-I relative to DMSO control)”.

And the “p62 oligomerization (fold change of p62 oligomer levels)” value (p62 oligomers)?
The value was “++ (>2-fold change relative to DMSO control)”.
